Data published in patent US20030130210A1, “Method for treating a patient with neoplasia by treatment with an anthracycline antibiotic” (priority 1998, published 2003).

Key:
[1] = test system: HT-29 cells; assay: Apoptosis by DNA fragmentation assay in HT-29 cells; type: cell-based, human; settings: apoptosis inducing activity
[2] = Side effects of exisulind on administration; type: in vivo; settings: doses higher than the recommended therapeutic levels; reversible
Excerpt: This effect is reversible, and liver enzymes return to normal levels when the administered dose of exisulind returns to the traditionally recommended level or when treatment is discontinued. The most serious side effects of anthracycline antibiotics, on the other hand, is their myocardial toxicity and their myelosuppressive activity.

[3] = test system: HT-29 cells; assay: Cyclic nucleotide (cGMP, cAMP) levels in HT-29 cells by radioimmunoassay; type: cell-based, human; settings: HT-29 cells treated for 30 minutes
Procedure: The amount of PDE activity can be determined by assaying for the amount of cyclic GMP in the extract of treated cells using a radioimmunoassay (RIA). In this procedure, a neoplastic cell line is incubated with a test compound. […]
It has been observed that a compound which is useful in the practice of this invention (i.e., one that selectively induces apoptosis in neoplastic cells, but not substantially in normal cells) follows a time course consistent with cGMP-specific PDE inhibition. […] The intracellular targets of these drug actions are being studied further, but current data support the concept that the initial rise in cGMP content and the subsequent fall in cAMP content precede apoptosis in neoplastic cells exposed to test compounds useful in this invention. To determine the cyclic AMP content in cell extracts, radioimmunoassay techniques similar to those described above for cGMP are used.

[4] = test system: HT-29 cells; assay: Apoptosis and necrosis by morphology (acridine orange / ethidium bromide) in HT-29 cells; type: cell-based, human; settings: 120 μM
Procedure: Treatment of cells with test compounds involves either pre- or post-confluent cultures and treatment for two to seven days at various concentrations of the compound in question. Apoptotic cells are measured by combining both the attached and “floating” compartments of the cultures. The protocol for treating tumor cell cultures with sulindac and related compounds to obtain a significant amount of apoptosis has been described in the literature. (See, Piazza, G. A., et al., Cancer Research, 55:3110-16, 1995, which is incorporated herein by reference). The novel features include collecting both floating and attached cells, identification of the optimal treatment times and dose range for observing apoptosis, and identification of optimal cell culture conditions. […]
Reference compounds and test compounds were analyzed for their cGMP-specific PDE inhibitory activity in accordance with the protocols for the assay, supra. […] Apoptotic and necrotic cell death was determined as previously described (Duke and Cohen, In: Current Protocols in Immunology, 3.17.1-3.17.16, New York, John Wiley and Sons, 1992). […]
The apoptosis inducing activity for a series of phosphodiesterase inhibitors was determined. […] Apoptosis and necrosis were determined morphologically after acridine orange and ethidium bromide labeling in accordance with the assay described, supra.

[5] = test system: HT-29 cells; assay: Tumor cell growth inhibition in HT-29 cells; type: cell-based, human; settings: 120 μM, viable cell count after trypan blue staining

SMILES | Fold induction at 100 μM [1] [fold] | effect on levels of cAMP [3] | further results
CCN(CC)CCSC12CC(=O)OC1(C)/C(=C/c1ccc(S(C)(=O)=O)cc1)c1ccc(F)cc12 (racemic) [A, rac-threo-(E)-1-(N,N′-diethylaminoethanethio)-1-(butan-1′,4′-olido)-[3′,4′:1,2]-6-fluoro-2-methyl-3-(p-methylsulfonylbenzylidene)-indan] | <2.0 | – | –
CCCCCC[C@@H]([C@@H](C)O)n1cnc2c(N)ncnc21 (racemic) [EHNA] | <2.0 | – | –
CC1=C(CC(=O)O)c2cc(F)ccc2/C1=C\c1ccc(S(C)(=O)=O)cc1 [Exisulind, (Z)-5-fluoro-2-methyl-1-[[4-(methylsulfonyl)phenyl]methylene]indene-3-yl acetic acid] | – | – | side effects at doses higher than recommended [2]: elevated levels of liver enzymes
COc1ccc(C2CNC(=O)C2)cc1OC1CCCC1 (stereo not shown) [Rolipram] | – | increased cAMP levels | –
CSc1ccc(/C=C2/C(C)=C(CC(=O)O)c3cc(F)ccc32)cc1 [Sulindac sulfide] | – | unaffected | apoptosis, time course [4]: increase in apoptosis; growth inhibition, time course [5]: capable of inhibiting tumor cell growth
